Test [1] concerns MCF-7 human breast cancer cell line. Kind of test: Cell Viability Assay (MCF7), PrestoBlue. It is filed as cell-based. The note with it: MCF7, 72 h, MCF-7 cells, three days after drug treatment. As to the method:
In order to determine a compound's effect on cell viability, PrestoBlue assays were performed as previously described by Kuhn et al. (2013) with modifications. MCF-7 human breast cancer and IGR-1 human melanoma cell lines were seeded into 96-well plates 24 hours prior to addition of drug. Cells were treated with 0 to 200 μM (11 concentrations) of compound solubilized in DMSO, adjusting the final concentration of DMSO to 1% in the well. Three days after drug treatment, cell viability was measured by adding PrestoBlue (Life Technologies Ltd.; cat. No. A13262) reagent directly to wells containing media/drug to reach a final concentration of 10%. PrestoBlue is a modified molecule of the common Alamar Blue probe used to determine viability based on the ability of a cell to metabolize a nonfluorescent compound (resazurin) to a florescent molecule (resorufin). Following a 1 hour incubation period, total well fluorescence was measured using the microplate reader M1000 pro (Tecan) with excitation 560-5 nm and emission 590-5 nm. […] The percentage of living cells was then computed by comparison with control wells. Kuhn, Jonas et al., Assay and Drug Development Technologies, March 2013, Label-Free Cytotoxicity Screening Assay by Digital Holographic Microscopy.

The next test addresses T1, Rac1 protein (Homo sapiens, UniProt P63000).
T1 construct: purchased Cytoskeleton Inc. RC01
The test can be described thus: Fluorescence Polarization Assay (Rac1 FP). To be noted: 125 nM his-tagged Rac1, 12.5 nM Bodipy-TR GTPγS, 30 minutes at 37° C. It is filed as binding. How it is done:
Direct binding of Rac1 compound inhibitors to Rac1 protein was performed using fluorescence polarization (FP). Briefly, Rac1 inhibitors were initially dissolved in DMSO and then serial drug dilutions in exchange buffer (20 mM Tris pH 7.5, 50 mM NaCl, 1 mM MgCl, 1 mM EDTA) were prepared in a flat black 96-well half-area plate (Greiner). Recombinant his-tagged Rac1 protein (Cytoskeleton Inc. Cat. # RC01) was added to the inhibitors at a final concentration of 125 nM along with 12.5 nM Bodipy-TR GTPγS (Life Technologies Inc. Cat. # G35780) in exchange buffer and incubated for 30 minutes at 37° C. in exchange buffer. After 30 minutes of incubation. FP was measured on the M1000 Pro (Tecan) fluorescent plate reader with 590 nm±5 nm excitation and 625 nm±5 nm emission spectra settings.
(Polarisation of emitted light reports the rotation of a fluorescent probe.)

In test [2] the target is His-Rac1 / GST-PBD (PAK Binding Domain) (Homo sapiens, UniProt P63000). Kind of test: Rac Activation AlphaScreen Assay (Rac1 AS). It is filed as biochemical. The note with it: 500 nM GTPγS, 37° C., 1 hour; 'positive' = signal generated was higher than the positive control. How it is done: AlphaScreen® assays were performed in 96-well microplates in a final reaction volume of 60 μl. Recombinant His-Rac1, recombinant GST-PBD (PAK Binding Domain), donor and acceptor beads (PerkinElmer), and inhibitors were incubated in exchange buffer (20 mM Tris pH 7.5, 50 mM NaCl, 1 mM MgCl2, 1 mM EDTA, 500 nM GTPγS (guanosine 5′-[γ-thio]triphosphate)) at 37° C. Readings were performed on a Tecan M1000 pro microplate reader after 1 hour.
A general note: Alpha assays give light when donor and acceptor beads are brought close together.

A word on the IC50: it is the concentration at which inhibition is half-maximal. The low end stands for inhibition by little substance, the high end for a need for much substance.

For `FC(F)(F)c1ccc2c(SCCCCCCn3cncc3CN3CCOCC3)ccnc2c1` [Compound 0032662, 4-({6-[5-(morpholin-4-ylmethyl)-1H-imidazol-1-yl]hexyl}sulfanyl)-7-(trifluoromethyl) quinoline], the IC50 in test [1] turned out to be 19.1 µM; against Rac1 protein, 2.33 µM; in test [2], 16.6 µM.
Consider `COCCN(Cc1cn(CCCCCCSc2ccnc3cc(C(F)(F)F)ccc23)nn1)C(=O)OC(C)(C)C` [Compound 0032621, tert-butyl N-(2-methoxyethyl)-N-{[1-(6-{[7-(trifluoromethyl)quinolin-4-yl]sulfanyl}hexyl)-1H-1,2,3-triazol-4-yl]methyl}carbamate], for which the IC50 in test [1] is 9.34 µM; at Rac1 protein it was 1.48 µM. Besides, the “Rac1 AS IC50(uM)” value in test [2] is given as “positive”.
The corresponding values for `FC(F)(F)c1ccc2c(SCCCCCOc3ccc(CN4CCOCC4)nc3)ccnc2c1` [Compound 0031778, 4-[(5-{[6-(morpholin-4-ylmethyl)pyridin-3-yl]oxy}pentyl)sulfanyl]-7-(trifluoromethyl)quinoline] are 4.86 µM, 1.24 µM and “positive”.
Consider `O=C1CNCCN1c1ccc(NCCCCCCSc2ccnc3cc(C(F)(F)F)ccc23)cc1` [Compound 0033283, 1-{4-[(6-{[7-(trifluoromethyl)quinolin-4-yl]sulfanyl)hexyl}amino]phenyl} piperazin-2-one], for which the IC50 in test [1] worked out at 5.6 µM; on Rac1 protein it was 3.07 µM; in test [2], 6.3 µM.
On the same counts, the results for `FC(F)(F)c1ccc2c(SCCCCCCCn3cc(CN4CCOCC4)nn3)ccnc2c1` [Compound 0032371, 4-({7-[4-(morpholin-4-ylmethyl)-1H-1,2,3-triazol-1-yl]heptyl}sulfanyl)-7-(trifluoromethyl) quinoline] are 11.3 µM, 3.73 µM and 62 µM.
On to `FC(F)(F)c1ccc2c(SCCCCCNc3ccc(N4CCNCC4)cc3)ccnc2c1` [Compound 0033240, 4-(piperazin-1-yl)-N-(5-{[7-(trifluoromethyl)quinolin-4-yl]sulfanyl}pentyl)aniline], for which the figures for the IC50 (in test [1]; at Rac1 protein; in test [2]) were 3.8 µM, 9.67 µM and 0.98 µM, respectively.
On the same counts, the results for `FC(F)(F)c1ccc2c(SCc3cccc(Cn4cc(CN5CCOCC5)nn4)c3)ccnc2c1` [Compound 0032731, 4-[{(3-{[4-(morpholin-4-ylmethyl)-1H-1,2,3-triazol-1-yl]methyl}phenyl)methyl]sulfanyl)-7-(trifluoromethyl) quinoline] are 9.1 µM, 5.16 µM and 24.1 µM.
On the same counts, the results for `FC(F)(F)c1ccc2c(SCCCCCCNc3cccc(N4CCNCC4)c3)ccnc2c1` [Compound 0033235, 3-piperazin-1-yl-N-[6-[[7-(trifluoromethyl)-4-quinolyl]sulfanyl]hexyl]aniline] are 3.6 µM, 4.81 µM and 1.1 µM.
The corresponding values for `CN(Cc1cn(CCCCCCSc2ccnc3cc(C(F)(F)F)ccc23)cn1)c1ccccc1` [Compound 0032887, N-methyl-N-{[1-(6-{[7-(trifluoromethyl)quinolin-4-yl]sulfanyl)hexyl}-1H-imidazol-4-yl]methyl}aniline] are 11.8 µM, 1.18 µM and 4.7 µM.
Consider `Cc1ccc(NCc2cn(CCCCCCSc3ccnc4cc(C(F)(F)F)ccc34)cn2)cc1` [Compound 0032880, 4-methyl-N-{[1-(6-{[7-(trifluoromethyl)quinolin-4-yl]sulfanyl)hexyl}-1H-imidazol-4-yl]methyl)aniline], for which the values for the IC50 (in test [1]; against Rac1 protein; in test [2]) were 6.3 µM, 1 µM and 3.2 µM, respectively.
On to `Fc1ccc2c(SCCCCCCn3cnc(CNc4ccccc4)c3)ccnc2c1` [Compound 0033042, N-{(1-(6-[(7-fluoroquinolin-4-yl)sulfanyl]hexyl}-1H-imidazol-4-yl}methyl] aniline], for which the figures for the IC50 (in test [1]; on Rac1 protein; in test [2]) were 9 µM, 2.35 µM and 7.2 µM, respectively.
On the same counts, the results for `FC(F)(F)c1ccc2c(SCCCCCCn3cnc(CNc4ccccc4)c3)ccnc2c1` [Compound 0032886, N-{[1-(6-{[7-(trifluoromethyl)quinolin-4-yl]sulfanyl)hexyl}-1H-imidazol-4-yl]methyl} aniline] are 7.8 µM, 2.04 µM and 4.4 µM.
`FC(F)(F)c1ccc2c(SCCCCCCNc3ccc(N4CCNCC4)cc3)ccnc2c1` [Compound 0033102, 4-(piperazin-1-yl)-N-(6-{[7-(trifluoromethyl)quinolin-4-yl]sulfanyl}hexyl)aniline]: the IC50 in test [1] was 3.8 µM; against Rac1 protein it was 9.66 µM; in test [2], 0.383 µM.

Values taken from patent publication US10472352B2, “Rac inhibitors” (Geneyus LLC, priority 2017, dated 2019).
